According to PubChem BioAssay AID328 (DTP/NCI, 2004):
Where “and” joins values, the source holds several entries; their conditions need not be identical. Identical values can stand only once. Toxic doses and inconclusive results are not listed.

Tested on: BDF1 mice, P388 leukemia ip, median survival T/C
Assay: NCI In Vivo Anticancer Drug Screen. Data for tumor model P388 Leukemia (intraperitoneal) in B6D2F1 (BDF1) mice
Conditions: endpoint: median survival time, higher = longer survival
Procedure, shortened: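 Survival ratio, drug arm over vehicle arm, in mice with a transplanted tumour.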

[1] = dose: 50.0 mg/kg/injection, schedule: Q04DX003 (ip), vehicle: saline with Tween-80
[2] = dose: 100.0 mg/kg/injection, schedule: Q04DX003 (ip), vehicle: saline with Tween-80
[3] = dose: 200.0 mg/kg/injection, schedule: Q04DX003 (ip), vehicle: saline with Tween-80
[4] = dose: 400.0 mg/kg/injection, schedule: Q04DX003 (ip), vehicle: saline with Tween-80
[5] = dose: 100.0 mg/kg/injection, schedule: Q01DX009 (ip), vehicle: Klucel (hydroxypropylcellulose) (HPC)
[6] = dose: 200.0 mg/kg/injection, schedule: Q01DX009 (ip), vehicle: Klucel (hydroxypropylcellulose) (HPC)
[7] = dose: 50.0 mg/kg/injection, schedule: Q01DX009 (ip), vehicle: saline with Tween-80
[8] = dose: 100.0 mg/kg/injection, schedule: Q01DX009 (ip), vehicle: saline with Tween-80
[9] = dose: 200.0 mg/kg/injection, schedule: Q01DX009 (ip), vehicle: saline with Tween-80
[10] = dose: 2.0 mg/kg/injection, schedule: Q01DX010 (ip), vehicle: carboxymethylcellulose (CMC)
[11] = dose: 100.0 mg/kg/injection, schedule: Q01DX009 (ip), vehicle: saline sonified
[12] = dose: 200.0 mg/kg/injection, schedule: Q01DX009 (ip), vehicle: saline sonified
[13] = dose: 400.0 mg/kg/injection, schedule: Q01DX009 (ip), vehicle: saline sonified
[14] = dose: 50.0 mg/kg/injection, schedule: Q01DX009 (ip), vehicle: Klucel (hydroxypropylcellulose) (HPC)

## CN(CCOS(C)(=O)=O)CCOS(C)(=O)=O
dose: 0.01 mg/kg/injection, schedule: Q01DX009 (ip), vehicle: saline
  T/C: 172 % of control
dose: 0.02 mg/kg/injection, schedule: Q01DX009 (ip), vehicle: saline
  T/C: 213 % of control
dose: 0.07 mg/kg/injection, schedule: Q04DX003 (ip), vehicle: saline
  T/C: 122 % of control
dose: 0.11 mg/kg/injection, schedule: Q04DX003 (ip), vehicle: saline
  T/C: 154 % of control
dose: 0.36 mg/kg/injection, schedule: Q01DX009 (ip), vehicle: saline
  T/C: 104 % of control and 218 % of control
dose: 0.56 mg/kg/injection, schedule: Q01DX009 (ip), vehicle: saline
  T/C: 231 % of control and 260 % of control and 90 % of control
dose: 0.75 mg/kg/injection, schedule: Q04DX003 (ip), vehicle: saline
  T/C: 213 % of control
dose: 0.84 mg/kg/injection, schedule: Q01DX009 (ip), vehicle: saline
  T/C: 231 % of control
dose: 0.99 mg/kg/injection, schedule: Q04DX003 (ip), vehicle: saline
  T/C: 225 % of control
dose: 1.5 mg/kg/injection, schedule: Q04DX003 (ip), vehicle: saline
  T/C: 240 % of control and 250 % of control
dose: 2.25 mg/kg/injection, schedule: Q04DX003 (ip), vehicle: saline
  T/C: 150 % of control
dose: 2.3 micrograms/kg/injection, schedule: Q01DX009 (ip), vehicle: saline
  T/C: 87 % of control
dose: 19.0 micrograms/kg/injection, schedule: Q01DX009 (ip), vehicle: saline
  T/C: 160 % of control
dose: 44.0 micrograms/kg/injection, schedule: Q01DX009 (ip), vehicle: saline
  T/C: 158 % of control
dose: 66.0 micrograms/kg/injection, schedule: Q01DX009 (ip), vehicle: saline
  T/C: 220 % of control

## CC1CNC(=S)O1 (configuration not stated)
[1]
  T/C: 90 % of control
[2]
  T/C: 120 % of control
[3]
  T/C: 90 % of control
[4]
  T/C: 115 % of control

## Cc1ccc([N+](=O)[O-])cc1NC(=O)Nc1ccc(S(N)(=O)=O)cc1
[5]
  T/C: 100 % of control
[6]
  T/C: 100 % of control
dose: 400.0 mg/kg/injection, schedule: Q01DX009 (ip), vehicle: Klucel (hydroxypropylcellulose) (HPC)
  T/C: 100 % of control

## O=C(O)c1ccccc1C(=O)Nc1ccccc1C(F)(F)F
[7]
  T/C: 94 % of control
[8]
  T/C: 89 % of control
[9]
  T/C: 121 % of control

## CC(C)C1=CC2=C[C@H](O)[C@H]3C(C)(C)CCC[C@]3(C)C2=C(O)C1=O
[10]
  T/C: 100 % of control
dose: 2.2 mg/kg/injection, schedule: Q01DX010 (ip), vehicle: carboxymethylcellulose (CMC)
  T/C: 112 % of control
dose: 3.3 mg/kg/injection, schedule: Q01DX010 (ip), vehicle: carboxymethylcellulose (CMC)
  T/C: 116 % of control
dose: 5.0 mg/kg/injection, schedule: Q01DX010 (ip), vehicle: carboxymethylcellulose (CMC)
  T/C: 120 % of control
dose: 10.0 mg/kg/injection, schedule: Q01DX010 (ip), vehicle: carboxymethylcellulose (CMC)
  T/C: 100 % of control
dose: 10.0 mg/kg/injection, schedule: Q01DX010 (ip), vehicle: other
  T/C: 115 % of control
dose: 20.0 mg/kg/injection, schedule: Q01DX010 (ip), vehicle: carboxymethylcellulose (CMC)
  T/C: 110 % of control

## S=c1[nH]c2nc(Cl)c(Cl)nc2[nH]1
dose: 12.5 mg/kg/injection, schedule: Q01DX009 (ip), vehicle: saline with Tween-80
  T/C: 94 % of control
dose: 25.0 mg/kg/injection, schedule: Q01DX009 (ip), vehicle: saline with Tween-80
  T/C: 92 % of control and 115 % of control
[7]
  T/C: 102 % of control
[1]
  T/C: 94 % of control
[8]
  T/C: 94 % of control and 99 % of control
[2]
  T/C: 92 % of control
[3]
  T/C: 94 % of control
dose: 300.0 mg/kg/injection, schedule: Q01DX009 (ip), vehicle: saline with Tween-80
  T/C: 105 % of control

## COc1ccc2[nH]c3c(C)c4ccncc4c(C)c3c2c1
dose: 4.68 mg/kg/injection, schedule: Q01DX009 (ip), vehicle: water
  T/C: 117 % of control
dose: 9.37 mg/kg/injection, schedule: Q01DX009 (ip), vehicle: water
  T/C: 88 % of control
dose: 9.37 mg/kg/injection, schedule: Q04DX003 (ip), vehicle: water
  T/C: 176 % of control
dose: 18.5 mg/kg/injection, schedule: Q01DX009 (ip), vehicle: other
  T/C: 87 % of control
dose: 18.5 mg/kg/injection, schedule: Q04DX003 (ip), vehicle: water
  T/C: 188 % of control
dose: 18.75 mg/kg/injection, schedule: Q01DX001 (ip), vehicle: other
  T/C: 112 % of control
dose: 18.75 mg/kg/injection, schedule: Q01DX001 (ip), vehicle: water
  T/C: 176 % of control
dose: 18.75 mg/kg/injection, schedule: Q01DX009 (ip), vehicle: water
  T/C: 94 % of control
dose: 37.5 mg/kg/injection, schedule: Q01DX001 (ip), vehicle: other
  T/C: 116 % of control
dose: 37.5 mg/kg/injection, schedule: Q01DX001 (ip), vehicle: water
  T/C: 164 % of control
dose: 37.5 mg/kg/injection, schedule: Q04DX003 (ip), vehicle: other
  T/C: 158 % of control
dose: 75.0 mg/kg/injection, schedule: Q01DX001 (ip), vehicle: water
  T/C: 200 % of control
dose: 75.0 mg/kg/injection, schedule: Q04DX003 (ip), vehicle: other
  T/C: 95 % of control

## NC(=S)N/N=C/c1ccccn1
dose: 1.0 mg/kg/injection, schedule: Q01DX010 (ip), vehicle: carboxymethylcellulose (CMC)
  T/C: 110 % of control
[10]
  T/C: 110 % of control
dose: 30.0 mg/kg/injection, schedule: Q01DX010 (ip), vehicle: saline
  T/C: 112 % of control

## C[C@]1(O)CC[C@H]2[C@@H]3CCC4=CC(=O)CC[C@]4(C)[C@@]3(Cl)[C@@H](O)C[C@@]21C
[11]
  T/C: 100 % of control
[2]
  T/C: 95 % of control
[12]
  T/C: 100 % of control
[3]
  T/C: 100 % of control
[13]
  T/C: 100 % of control
[4]
  T/C: 100 % of control

## CC(=O)Nc1ccc(/C=C\c2ccnc3ccccc23)cc1
dose: 33.3 mg/kg/injection, schedule: Q04DX002 (ip), vehicle: saline with Tween-80
  T/C: 111 % of control
dose: 50.0 mg/kg/injection, schedule: Q04DX002 (ip), vehicle: saline with Tween-80
  T/C: 107 % of control
dose: 75.0 mg/kg/injection, schedule: Q04DX002 (ip), vehicle: saline with Tween-80
  T/C: 112 % of control

## CN(C)P(=O)(N(C)C)N1CC1
dose: 90.0 mg/kg/injection, schedule: Q04DX003 (ip), vehicle: saline
  T/C: 192 % of control
dose: 100.0 mg/kg/injection, schedule: Q04DX003 (ip), vehicle: saline
  T/C: 157 % of control
dose: 135.0 mg/kg/injection, schedule: Q04DX003 (ip), vehicle: saline
  T/C: 176 % of control
dose: 200.0 mg/kg/injection, schedule: Q04DX003 (ip), vehicle: saline
  T/C: 233 % of control and 211 % of control

## CCCCC(CC)COP(OCC(CC)CCCC)OCC(CC)CCCC (configuration not stated)
[2]
  T/C: 109 % of control
[3]
  T/C: 100 % of control
[4]
  T/C: 118 % of control

## CCCCCCCCCCCCCCCC(=O)Oc1ccc(/C(CC)=C(/CC)c2ccc(OC(=O)CCCCCCCCCCCCCCC)cc2)cc1
[2]
  T/C: 90 % of control
[3]
  T/C: 89 % of control
[4]
  T/C: 89 % of control

## CCCCCCCCCCC(C(=O)O)C1(C(=O)O)CCC(=O)O1 (configuration not stated)
[14]
  T/C: 107 % of control
[5]
  T/C: 107 % of control
[6]
  T/C: 98 % of control

## CC(=O)ON(CC(=O)OCc1ccccc1)C(C)=O
dose: 12.5 mg/kg/injection, schedule: Q01DX009 (ip), vehicle: other
  T/C: 100 % of control
dose: 25.0 mg/kg/injection, schedule: Q01DX009 (ip), vehicle: other
  T/C: 102 % of control
dose: 50.0 mg/kg/injection, schedule: Q01DX009 (ip), vehicle: other
  T/C: 118 % of control
dose: 100.0 mg/kg/injection, schedule: Q01DX009 (ip), vehicle: other
  T/C: 102 % of control
dose: 200.0 mg/kg/injection, schedule: Q01DX009 (ip), vehicle: other
  T/C: 100 % of control

## CCN(CC)CCCC(C)NC(=O)c1ccc(Cl)nc1 (configuration not stated)
dose: 37.5 mg/kg/injection, schedule: Q01DX009 (ip), vehicle: saline with Tween-80
  T/C: 107 % of control
[7]
  T/C: 113 % of control
[1]
  T/C: 103 % of control
dose: 75.0 mg/kg/injection, schedule: Q01DX009 (ip), vehicle: saline with Tween-80
  T/C: 96 % of control
[2]
  T/C: 107 % of control
dose: 150.0 mg/kg/injection, schedule: Q01DX009 (ip), vehicle: saline with Tween-80
  T/C: 117 % of control
[9]
  T/C: 97 % of control
[3]
  T/C: 110 % of control

## CCc1ccccc1OS(=O)(=O)c1ccc([N+](=O)[O-])cc1
[11]
  T/C: 88 % of control
[12]
  T/C: 88 % of control
[13]
  T/C: 94 % of control

## NC(CCCC(=O)O)P(=O)(O)O (configuration not stated)
[14]
  T/C: 112 % of control
[5]
  T/C: 110 % of control
[6]
  T/C: 113 % of control
